Columns and labels:
[1] = target: T1, AuroraA-TPX2 (Homo sapiens, UniProt O14965); test: AuroraA-TPX2 Homogeneous Time Resolved Fluorescent (HTRF) kinase assay; type: biochemical; conditions: average; ATP about 1 μM; read-out: AurA _IC50_ IP (uM Avg)
T1 construct: 20 μL of AuroraA-TPX2 KD GST for a final volume of about 41 μL; GST
T1 sequence (O14965 133-383 limits assumed): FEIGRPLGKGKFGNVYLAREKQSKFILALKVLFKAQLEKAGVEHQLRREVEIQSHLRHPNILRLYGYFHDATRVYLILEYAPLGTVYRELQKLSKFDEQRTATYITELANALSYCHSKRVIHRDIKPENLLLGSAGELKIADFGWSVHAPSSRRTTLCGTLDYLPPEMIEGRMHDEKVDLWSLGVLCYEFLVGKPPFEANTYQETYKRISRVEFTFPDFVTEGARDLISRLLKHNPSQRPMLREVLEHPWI
T1 sequence (Q9ULW0 1-43 partner limits assumed): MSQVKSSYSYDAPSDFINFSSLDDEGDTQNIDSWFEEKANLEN
Procedure: The Aurora-A HTRF assay begins with Aurora-A in the presence of ATP phosphorylating the biotinylated peptide PLK. The reaction incubates for about 120 min. Detection reagents are added to quench the reaction. These agents stop the reaction by diluting out the enzyme and chelating the metals due to the presence of EDTA. After addition, the assay is incubated overnight to allow the detection reagents to equilibrate.
The AuroraA HTRF assay comprises 1 μL of compound in 100% DMSO, 20 μL of ATP and biotinylated PLK, and 20 μL of AuroraA-TPX2 KD GST for a final volume of about 41 μL. The final concentration of PLK is about 1 μM. The final concentration of ATP is about 1 μM (Km(app)=1 μM+/−0.1) and the final concentration of AuroraA is about 5 nM. Buffer conditions are as follows: 60 mM HEPES pH 7.5, 25 mM NaCl, 10 mM MgCl, 2 mM DTT, 0.05% BSA.
(§1) The assay is quenched and stopped with 160 μL of detection reagent. Detection reagents are as follows: Buffer made of 50 mM Tris, pH 7.5, 100 mM NaCl, 3 mM EDTA, 0.05% BSA, 0.1% Tween20. Added to this buffer prior to reading is Steptavidin allophycocyanin (SA-APC) at a final conc in the assay of 0.0005 mg/mL, and europilated anti-phosphoPLK Ab (Eu-anti-PLK) at a final conc of 0.02 nM.
(§2) The assay plate is read in either a Discovery or a RubyStar. The eu-anti-PLK is excited at 320 nm and emits at 615 nm to excite the SA-APC which in turn emits at 655 nm. The ratio of SA-APC at 655 nm (excited due to close proximity to the Eu-anti-PLK because of phosphorylation of the peptide) to free Eu-anti-PLK at 615 nm will give substrate phosphorylation.

[2] = tested on: HeLa cells; test: HeLa cell 24 hr ploidy assay; type: cell-based; conditions: Homo sapiens, 24 hrs treatment, average, read-out: 24h_4N Ploidy EC50_IP (uM Avg)
Procedure: The purpose of this assay is to evaluate the ability of selected individual compounds to induce Deoxyribonucleic acid (DNA) content (ploidy) in cells through failed cell division. Cell cycle analysis is a rapid and efficient way to evaluate the status of DNA content (ploidy) of a given cell. HeLa cells (1×10^4 HeLa cells/well) in 100 ul of media (MEM+10% FBS) were plated in 96-well plates (Packard View) and cultured for 24 hrs at 37° C. maintained in a 5% CO2 atmosphere. The following day, cells were treated for 24 hrs with inhibitor compounds (10 pt. Dose ranging from 0.0024-1.25 umol/L). The compounds were serially diluted in DMSO (0.25% final concentration). The cells were fixed (3.7% Formaldehyde and 1% glutaraldehyde) and permeabilized (1×PBS with 1% BSA and 0.2% Triton X-100) in preparation for nuclear staining. The well plates were stained for 45 minutes at RT in the dark using Hoechest 33342 nuclear stain at 0.5 ug·ml (Stock of 10 mg/ml, Invitrogen, CA, Cat # H3570). The nuclear stain was removed by aspiration and the cells were washed with wash buffer. A Cellomics Array Scan Vti plate reader was used to acquire the DNA ploidy data of the cells using Cell Cycle bioapplication. Numbers for each of “valid cell count/well”, “% of 4N cells” and “% of >4Ncells” were calculated with the assistance of an Activity Base 5.1ca software and dose curves were generated using an XLFit software. With XLFit, final EC50 IP and EC50 transit values, as well as the Max and Min, were calculated for each curve.

[3] = target: T2, AuroraB (Homo sapiens, UniProt Q96GD4); test: AuroraB Homogeneous Time Resolved Fluorescent (HTRF) kinase assay; type: biochemical; conditions: average; ATP 23 μM; read-out: AurB_IC50_IP (uM Avg)
T2 construct: 20 μL of AuroraB FL His for a final volume of 41 μL; His
Procedure: The AuroraB HTRF assay begins with AuroraB in the presence of ATP phosphorylating the biotinylated peptide Histone H3. The reaction incubates for about 90 min. the reaction is quenched by addition of detection reagents, which stop the reaction by diluting out the enzyme and chelating the metals due to the presence of EDTA. After addition, the assay is incubated for about 60 min to allow detection reagents to equilibrate.
The AuroraB HTRF assay comprises 1 μL of compound in 100% DMSO, 20 μL of ATP and biotinylated Histone H3, and 20 μL of AuroraB FL His for a final volume of 41 μL. The final concentration of Histone H3 is 0.1 μM. The final concentration of ATP is 23 μM (Km(app)=23 μM+/−2.6) and the final concentration of AuroraB is 400 pM. Buffer conditions are as follows: 50 mM HEPES pH 7.5, 5 mM NaCl, 0.5 mM MgCl, 0.5 mM MnCl, 2 mM DTT, 0.05% BSA.
as §1, with “0.001” for “0.0005”, “anti-phosphoHistoneH3” for “anti-phosphoPLK”, “(Eu-anti-His H3)” for “(Eu-anti-PLK)”, “0.064” for “0.02”
as §2, with “The eu-anti-His H3” for “The eu-anti-PLK”, “the Eu-anti-H is H3” for “the Eu-anti-PLK”, “free Eu-anti-His H3” for “free Eu-anti-PLK”

T2 sequence (Q96GD4 whole entry): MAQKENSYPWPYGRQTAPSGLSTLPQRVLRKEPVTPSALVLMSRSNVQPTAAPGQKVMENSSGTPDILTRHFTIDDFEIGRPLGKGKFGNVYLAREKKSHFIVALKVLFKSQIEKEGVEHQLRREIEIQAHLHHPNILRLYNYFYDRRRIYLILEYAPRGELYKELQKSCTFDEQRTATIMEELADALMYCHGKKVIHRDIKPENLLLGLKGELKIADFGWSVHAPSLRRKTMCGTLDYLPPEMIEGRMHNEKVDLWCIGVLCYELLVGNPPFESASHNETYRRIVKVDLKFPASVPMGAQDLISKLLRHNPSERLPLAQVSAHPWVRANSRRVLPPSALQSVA

Row | IC50 [1] [µM] | EC50 [2] [µM] | IC50 [3] [µM] | Compound
1 | < 0.1 | < 0.1 | < 0.1 | COc1cc2nccc(Oc3ccc(NC(=O)c4ccccc4Nc4ccc(F)cc4)cc3)c2cc1OC [Example 11, N-(4-(6,7-dimethoxyquinolin-4-yloxy)phenyl)-2-(4-fluorophenylamino)benzamide]
2 | < 0.1 | < 0.1 | < 0.1 | COc1cc2nccc(Oc3ccc(NC(=O)c4ccccc4Nc4ccccc4)cc3)c2cc1OC [Example 12, N-(4-(6,7-dimethoxyquinolin-4-yloxy)phenyl)-2-(phenylamino)benzamide]
3 | < 0.1 | < 0.1 | < 0.1 | COc1cc2nccc(Oc3ccc(NC(=O)c4ccccc4Nc4cccc(F)c4)cc3)c2cc1OC [Example 13, N-(4-(6,7-dimethoxyquinolin-4-yloxy)phenyl)-2-(3-fluorophenylamino)benzamide]
4 | < 0.1 | < 0.1 | < 0.1 | COc1cnc2c(Oc3ccc(NC(=O)c4cc(F)ccc4Nc4ccccc4)cc3)ccnc2c1 [Example 14, 5-fluoro-N-(4-(7-methoxy-1,5-naphthyridin-4-yloxy)phenyl)-2-(phenylamino)benzamide]
5 | < 0.1 | < 0.1 | < 0.1 | COc1cnc2c(Oc3ccc(NC(=O)c4ccccc4Nc4ccccc4)cc3)ccnc2c1 [Example 15, N-(4-(7-methoxy-1,5-naphthyridin-4-yloxy)phenyl)-2-(phenylamino)benzamide]
6 | < 0.1 |  | < 0.1 | COc1cc2nccc(Oc3ccc(NC(=O)c4ccccc4Nc4ccccc4)cc3F)c2cc1OC [Example 16, N-(4-(6,7-dimethoxyquinolin-4-yloxy)-3-fluorophenyl)-2-(phenylamino)benzamide]
7 | < 0.1 | 0.1 to 0.5 | < 0.1 | COc1ccc2c(Oc3ccc(NC(=O)c4ccccc4Nc4ccccc4)cc3F)ccnc2c1 [Example 17, N-(3-fluoro-4-(7-methoxyquinolin-4-yloxy)phenyl)-2-(phenylamino)benzamide]
8 | 0.1 to 0.5 | 1 to 5 | 0.1 to 0.5 | Nc1nccc(Oc2ccc(NC(=O)c3ccccc3Nc3ccc(F)cc3)cc2)n1 [Example 18, N-(4-(2-aminopyrimidin-4-yloxy)phenyl)-2-(4-fluorophenylamino)benzamide]
9 | 0.5 to 1 | 0.5 to 1 | < 0.1 | COc1cnc2c(Sc3ccc(NC(=O)c4ccccc4NN4CCCCC4)cc3)ccnc2c1 [Example 19, N-(4-(7-methoxy-1,5-naphthyridin-4-ylthio)phenyl)-2-(piperidin-1-ylamino)benzamide]
10 | 0.5 to 1 | 1 to 5 | 0.1 to 0.5 | COc1cnc2c(Oc3ccc(NC(=O)c4ccccc4NN4CCCCC4)cc3)ccnc2c1 [Example 20, N-(4-(7-methoxy-1,5-naphthyridin-4-yloxy)phenyl)-2-(piperidin-1-ylamino)benzamide]
11 | 1 to 5 | 1 to 5 | 0.1 to 0.5 | CNC(=O)c1cc(Oc2ccc(NC(=O)c3ccccc3Nc3ccccc3)cc2)ccn1 [Example 21, N-methyl-4-(4-(2-(phenylamino)benzamido)phenoxy)picolinamide]
12 | 1 to 5 | 0.5 to 1 | < 0.1 | COc1cnc2c(Sc3ccc(NC(=O)c4ccccc4NN4CCC(OC)CC4)cc3)ccnc2c1 [Example 22, N-(4-(7-methoxy-1,5-naphthyridin-4-ylthio)phenyl)-2-(4-methoxypiperidin-1-ylamino)benzamide]

Reference: patent publication US9126935B2, “Aurora kinase modulators and methods of use” (Amgen Inc., priority 2008, dated 2015)
